Laboratory results published in PubChem BioAssay (NCI).
“And” between values parts separate entries of the source, which are not always exact repeats. Equal entries are not always repeated.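 Following 48 hours of exposure in 96-well plates, responses at five concentrations were used to interpolate endpoints linearly. GI50 = concentration required for 50% inhibition of growth. Definition used: TGI = concentration required for complete inhibition of growth.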

How the values were obtained:
Experiment in all cases: growth of human tumour cells (NCI), 48 h
HL-60(TB) leukemia = system: HL-60(TB) leukemia
SK-OV-3 ovarian = system: SK-OV-3 ovarian
U251 CNS = system: U251 CNS
HOP-92 NSCLC = system: HOP-92 NSCLC
COLO 205 colon = system: COLO 205 colon
SN12C renal = system: SN12C renal
HS 578T breast = system: HS 578T breast
OVCAR-4 ovarian = system: OVCAR-4 ovarian
HCC-2998 colon = system: HCC-2998 colon
SR leukemia = system: SR leukemia

Row | Structure (SMILES) | GI50 (HL-60(TB) leukemia) | TGI (HL-60(TB) leukemia) | GI50 (SK-OV-3 ovarian) | TGI (SK-OV-3 ovarian) | GI50 (U251 CNS) | TGI (U251 CNS) | GI50 (HOP-92 NSCLC) | TGI (HOP-92 NSCLC) | GI50 (COLO 205 colon) | TGI (COLO 205 colon) | GI50 (SN12C renal) | TGI (SN12C renal) | GI50 (HS 578T breast) | TGI (HS 578T breast) | GI50 (OVCAR-4 ovarian) | TGI (OVCAR-4 ovarian) | TGI (HCC-2998 colon) | TGI (SR leukemia) | GI50 (HCC-2998 colon) | GI50 (SR leukemia)
1 | CCCCC#CC#Cc1cccc(=O)o1 | 15.6 µM | 43.1 µM | 27.3 µM | 46.7 µM | 24.6 µM | 72.7 µM | 33.2 µM | > 100 µM | 17.7 µM | 35 µM | 15.1 µM | 38.8 µM | 25.9 µM | 51.6 µM | 16.4 µM | 37.6 µM |  |  |  | 
2 | Cc1cc(C)c(S(=O)(=O)ONC(=O)OC(C)(C)C)c(C)c1 |  | > 100 µM |  | > 100 µM |  | > 100 µM |  | > 100 µM |  | > 100 µM |  | > 100 µM |  |  |  | > 100 µM | > 100 µM |  |  | 
3 | C[C@H]1C(Oc2ccc(O)cc2)OC2OC3(C)CCC4[C@H](C)CCC1C24OO3 (some centres undefined) | 0.57 µM | 24.4 µM | 21.1 µM | 47.8 µM | 11 µM | 25.8 µM | 11.5 µM | 25 µM | 0.867 µM | 13.7 µM | 11.7 µM | 26 µM | 11.9 µM | 32.7 µM | 4.7 µM | 31 µM |  | > 100 µM |  | 
4 | CCC[CH2][Sn]([CH2]CCC)([O]C(=O)C1CCC(=O)N1)[O]C(=O)C1CCC(=O)N1 (centres undefined) | 0.157 µM | 0.445 µM | 0.801 µM | 2.02 µM | 0.164 µM | 0.33 µM | 0.141 µM | 0.575 µM | 0.363 µM | 1.16 µM | 0.341 µM | 1.2 µM |  |  | 0.376 µM | 1.71 µM | 1.59 µM | 0.526 µM | 0.4 µM | 0.18 µM
5 | c1ccc(COCC2OC3c4ccccc4COC3C2OCc2ccccc2)cc1 (centres undefined) |  |  |  | > 100 µM |  | > 100 µM |  | 87.1 µM |  | > 100 µM |  | > 100 µM |  |  |  | > 100 µM | > 100 µM | > 100 µM |  | 
6 | COC(OC)[C@@H](C)[C@H](O)[C@](C)(O)C1OC(C)(C)OC(C(C)C=C(C)C)C1C (some centres undefined) |  | > 100 µM |  | > 100 µM |  | > 100 µM |  | > 100 µM |  | > 100 µM |  | > 100 µM |  |  |  | > 100 µM |  | > 100 µM |  | 
7 | CC(=O)[O-].O=C([CH-]C(=O)c1ccccc1)c1ccccc1.O=C([CH-]C(=O)c1ccccc1)c1ccccc1.[Y+3] | 2.44 µM | 10.8 µM | 8.31 µM | 37.1 µM | 3.91 µM | 31.5 µM | 4.04 µM | 18.9 µM | 8.61 µM | 22.1 µM | 6.23 µM | 38 µM |  |  | 5.73 µM | 77.3 µM | 19.7 µM |  | 5.72 µM | 
8 | CCCCCC/C=C\CCCCCCCCCC1=CC(=O)C=C(OC)C1=O |  |  |  | 16 µM |  | 13.6 µM |  | 8.05 µM |  | 3.24 µM |  | 14.4 µM |  | 41.7 µM |  | 9.22 µM | 27 µM | 20.2 µM |  | 
9 | OC(c1ccccn1)C1CNc2ccccc21 (centres undefined) |  | > 100 µM |  | > 100 µM |  | > 100 µM |  | > 100 µM |  | > 100 µM |  | > 100 µM |  |  |  | > 100 µM | > 100 µM |  |  | 
10 | O=C1C(Cl)=C(Nc2cccc(O)c2)C(=O)N1c1ccccc1Cl |  |  | 49.9 µM | > 100 µM | 33.3 µM | > 100 µM |  |  | 30.3 µM | > 100 µM | 17.3 µM | 46.4 µM | 21 µM | 77.7 µM | 40.4 µM | > 100 µM |  | 40.2 µM |  | 7 µM
11 | Cc1ccc(C)c(NC(=O)CCc2nc(=S)[nH][nH]2)c1 |  |  |  | > 100 µM |  | > 100 µM |  | > 100 µM |  | > 100 µM |  | > 100 µM |  |  |  | > 100 µM | > 100 µM | > 100 µM |  | 
12 | Cc1nc(N)sc1C(=O)Nc1cc(C(=O)NCCCN(C)C)n(C)c1 | > 100 µM | > 100 µM | > 100 µM | > 100 µM | > 100 µM | > 100 µM | > 100 µM | > 100 µM | > 100 µM | > 100 µM | > 100 µM | > 100 µM |  |  | > 100 µM | > 100 µM | > 100 µM | > 100 µM | > 100 µM | > 100 µM
13 | Nc1nnc(Cn2c(-c3ccccc3)nc3ccc(Br)cc3c2=O)s1 |  |  | > 100 µM | > 100 µM | 38.4 µM | > 100 µM | 10.8 µM | > 100 µM | 64.6 µM | > 100 µM | 18.1 µM | 77.6 µM | 41.4 µM | > 100 µM | > 100 µM | > 100 µM | > 100 µM |  | 42.6 µM | 
14 | CC(=O)OC1CC2C(C)(C)C(=O)C=CC2(C)C2CCC3(C)C(c4ccoc4)OC(=O)C4OC43C12C (centres undefined) |  | > 100 µM |  | 48.7 µM |  | 26.1 µM |  | > 100 µM |  | 21.7 µM |  | 17.2 µM |  | > 100 µM |  | > 100 µM | 14.2 µM |  |  | 
15 | COc1cc(-c2cc(=O)c3cc(C)c(C)c(C(=O)O)c3o2)cc(OC)c1OC |  |  |  | > 100 µM |  | > 100 µM |  | > 100 µM |  | > 100 µM |  | > 100 µM |  |  |  | > 100 µM | > 100 µM |  |  | 
16 | COc1ccc(Cn2cc3c(c2-c2cc(OC)c(OC)c(OC)c2)CCc2cnoc2-3)cc1[N+](=O)[O-] | 0.412 µM | 7.98 µM | 1.08 µM | > 30.2 µM | 1.2 µM | > 100 µM | 1.07 µM | 60.6 µM | 0.73 µM | 3.28 µM | 4.11 µM | > 100 µM | 1.13 µM |  | 3.75 µM | > 100 µM | > 31.6 µM |  | 1.93 µM | 
17 | COc1cccc2[nH]c(-c3ccccn3)nc12 |  |  |  | > 100 µM |  | > 100 µM |  | > 100 µM |  | > 100 µM |  | > 100 µM |  | > 100 µM |  | > 100 µM | > 100 µM | > 100 µM |  | 
18 | Cc1c(NC(=O)OC[C@@H]2COCCN2)cn2ncnc(Nc3ccc4c(cnn4Cc4cccc(F)c4)c3)c12 | 7.76 µM and 17.5 µM | > 10 µM and 37 µM | 1.09 µM and 0.711 µM | > 10 µM and 16.6 µM | 7.5 µM and 5.16 µM | > 10 µM and 18.6 µM | 1.45 µM and 0.991 µM | > 10 µM and 10.7 µM | 4.75 µM and 5.07 µM | > 10 µM and 16.9 µM | > 10 µM and 3.32 µM | > 10 µM and 20.4 µM | 2.32 µM and 5.49 µM | > 10 µM and 52.2 µM | > 10 µM and 8.04 µM | > 10 µM and 27.3 µM | > 10 µM and 25 µM |  | > 10 µM and 12 µM | 
